# Target: human adenosine A2a receptor (Homo sapiens (Human), UniProt P29274)
# Test: A2a receptor binding affinity, [3H]-NECA radioligand binding test
# Conditions: [3H]-NECA 37 nM; membrane from HEK-293 cells transfected with human adenosine A2a receptor
# Outline: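 Membranes from HEK-293 cells expressing human A2a receptor were incubated with [3H]-NECA (final 37 nM) and compound for 1 h at room temperature in 50 mM Tris, 10 mM MgCl2, 1 mM EDTA, pH 7.4. Bound ligand was filtered on PEI-coated plates and counted by scintillation to derive IC50 (μM).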
# Sequence of human adenosine A2a receptor (P29274 whole entry): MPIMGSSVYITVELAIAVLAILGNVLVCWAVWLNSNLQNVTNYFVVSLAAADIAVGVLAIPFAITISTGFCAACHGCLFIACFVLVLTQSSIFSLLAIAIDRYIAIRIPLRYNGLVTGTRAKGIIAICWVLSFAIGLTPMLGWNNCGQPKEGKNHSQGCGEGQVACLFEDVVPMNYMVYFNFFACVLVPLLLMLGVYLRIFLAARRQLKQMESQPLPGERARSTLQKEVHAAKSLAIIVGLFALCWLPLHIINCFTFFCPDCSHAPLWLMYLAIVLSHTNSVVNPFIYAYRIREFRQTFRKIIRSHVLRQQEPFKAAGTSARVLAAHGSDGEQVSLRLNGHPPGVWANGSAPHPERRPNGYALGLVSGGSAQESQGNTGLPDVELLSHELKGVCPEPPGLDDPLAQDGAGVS
row,Compound,IC50 [nM]
1,"Nc1nc(N2CCC[C@H]2C(=O)N2CCN(S(=O)(=O)C3CC3)CC2)nc2nc(-c3ccco3)nn12 [Example 69, (S)-(1-(7-amino-2-(furan-2-yl)-[1,2,4]triazolo[1,5-a][1,3,5]triazin-5-yl)pyrrolidin-2-yl)(4-(cyclopropylsulfonyl)piperazin-1-yl)methanone]",68
2,"C[C@H](Nc1nc(N)n2nc(-c3nccs3)nc2n1)C(=O)N1CCN(c2ccc(F)cc2F)CC1 [Example 194, (S)-2-((7-amino-2-(thiazol-2-yl)-[1,2,4]triazolo[1,5-a][1,3,5]triazin-5-yl)amino)-1-(4-(2,4-difluorophenyl)piperazin-1-yl)propan-1-one]",12
3,"CC(C)(F)CN1CCC(C2CCN(C(=O)[C@@H]3CCN3c3nc(N)n4nc(-c5ccco5)nc4n3)CC2)CC1 [Example 322, (S)-(1-(7-amino-2-(furan-2-yl)-[1,2,4]triazolo[1,5-a][1,3,5]triazin-5-yl)azetidin-2-yl)(1′-(2-fluoro-2-methylpropyl)-[4,4′-bipiperidin]-1-yl) methanone]",6
4,"Nc1nc(N2CC[C@H]2C(=O)N2CCN(CC(F)(F)C(F)(F)C(F)(F)F)CC2)nc2nc(-c3ccco3)nn12 [Example 257, (S)-(1-(7-amino-2-(furan-2-yl)-[1,2,4]triazolo[1,5-a][1,3,5]triazin-5-yl)azetidin-2-yl)(4-(2,2,3,3,4,4,4-heptafluorobutyl)piperazin-1-yl)methanone]",0.8
5,"Nc1nc(N2CCC[C@H]2C(=O)N2CCC(C(=O)NCc3ccccc3)CC2)nc2nc(-c3ccco3)nn12 [Example 81, 1-((7-amino-2-(furan-2-yl)-[1,2,4]triazolo[1,5-a][1,3,5]triazin-5-yl)-L-prolyl)-N-benzylpiperidin-4-carboxamide]",8
6,"Cc1ccc(-c2nc3nc(N4CCC[C@H]4C(=O)N4CCC(C5CCN(CC(F)(F)F)CC5)CC4)nc(N)n3n2)o1 [Example 197, (S)-(1-(7-amino-2-(5-methylfuran-2-yl)-[1,2,4]triazolo[1,5-a][1,3,5]triazin-5-yl)pyrrolidin-2-yl)(1′-(2,2,2-trifluoroethyl)-[4,4′-bipiperidin]-1-yl)methanone]",3
7,"COCCN1CCN(C(=O)[C@@H]2CCN2c2nc(N)n3nc(-c4ccco4)nc3n2)CC1 [Example 107, (S)-(1-(7-amino-2-(furan-2-yl)-[1,2,4]triazolo[1,5-a][1,3,5]triazin-5-yl)azetidin-2-yl)(4-(2-methoxyethyl)piperazin-1-yl) methanone]",9
8,"Nc1nc(N2CCC[C@H]2C(=O)N2CCN(C3CCC(C(F)(F)F)CC3)CC2)nc2nc(-c3ccco3)nn12 (stereo partly drawn) [Example 155, (S)-(1-(7-amino-2-(furan-2-yl)-[1,2,4]triazolo[1,5-a][1,3,5]triazin-5-yl)pyrrolidin-2-yl)(4-(4-(trifluoromethyl)cyclohexyl)piperazin-1-yl)methanone]",11
9,"Nc1nc(N2CCC[C@H]2C(=O)N2C[C@@H]3C[C@H]2CN3Cc2ccc(F)cc2F)nc2nc(-c3ccco3)nn12 [Example 44, ((S)-1-(7-amino-2-(furan-2-yl)-[1,2,4]triazolo[1,5-a][1,3,5]triazin-5-yl)pyrrolidin-2-yl)((1S,4S)-5-(2,4-difluorobenzyl)-2,5-diazabicyclo[2.2.1]heptan-2-yl)methanone]",10
10,"CCCC[C@H](Nc1nc(N)n2nc(-c3ccco3)nc2n1)C(=O)N1CCN(CCCC)CC1 [Example 173, (S)-2-((7-amino-2-(furan-2-yl)-[1,2,4]triazolo[1,5-a][1,3,5]triazin-5-yl)amino)-1-(4-butylpiperazin-1-yl)hexan-1-one]",16
11,"CC(C)C(=O)N1CCN(C(=O)[C@H](Cc2ccccc2)Nc2nc(N)n3nc(-c4ccco4)nc3n2)CC1 [Example 5, (S)-2-((7-amino-2-(furan-2-yl)-[1,2,4]triazolo[1,5-a][1,3,5]triazin-5-yl)amino)-1-(4-isobutyrylpiperazin-1-yl)-3-phenylpropan-1-one]",1.26
12,"Nc1nc(N2CCC[C@H]2C(=O)N2CCN(CCCC(F)(F)F)CC2)nc2nc(-c3ccco3)nn12 [Example 239, (S)-(1-(7-amino-2-(furan-2-yl)-[1,2,4]triazolo[1,5-a][1,3,5]triazin-5-yl)pyrrolidin-2-yl)(4-(4,4,4-trifluorobutyl)piperazin-1-yl) methanone]",6
13,"Nc1nc(N[C@H](C(=O)N2CCN(c3ncccn3)CC2)C2CCOCC2)nc2nc(-c3ccco3)nn12 [Example 241, (S)-2-((7-amino-2-(furan-2-yl)-[1,2,4]triazolo[1,5-a][1,3,5]triazin-5-yl)amino)-1-(4-(pyrimidin-2-yl)piperazin-1-yl)-2-(tetrahydro-2H-pyran-4-yl)ethan-1-one]",1
14,"CC(C)(O)CN1CCC(C2CCN(C(=O)[C@@H]3CCN3c3cc4nc(-c5ccco5)nn4c(N)n3)CC2)CC1 [Example 381, (S)-(1-(5-amino-2-(furan-2-yl)-[1,2,4]triazolo[1,5-c]pyrimidin-7-yl)azetidin-2-yl)(1′-(2-hydroxy-2-methylpropyl)-[4,4′-bipiperidin]-1-yl)methanone]",9
15,"Cc1ccc(-c2nc3nc(N4CCC[C@H]4C(=O)N4CCN(c5nccs5)CC4)nc(N)n3n2)o1 [Example 202, 2-(4-((7-amino-2-(5-methylfuran-2-yl)-[1,2,4]triazolo[1,5-a][1,3,5]triazin-5-yl)-L-prolyl)piperazin-1-yl)thiazole]",7
16,"C[C@H](Nc1nc(N)n2nc(-c3ccco3)nc2n1)C(=O)N1CCN(CC(F)(F)C(F)(F)C(F)(F)F)CC1 [Example 320, (S)-2-((7-amino-2-(furan-2-yl)-[1,2,4]triazolo[1,5-a][1,3,5]triazin-5-yl)amino)-1-(4-(2,2,3,3,4,4,4-heptafluorobutyl)piperazin-1-yl)propan-1-one]",2
17,"Nc1nc(N2CCC[C@H]2C(=O)N2CC3(CN(CC(F)(F)F)C3)C2)nc2nc(-c3ccco3)nn12 [Example 345, (S)-(1-(7-amino-2-(furan-2-yl)-[1,2,4]triazolo[1,5-a][1,3,5]triazin-5-yl)pyrrolidin-2-yl)(6-(2,2,2-trifluoroethyl)-2,6-diazaspiro[3.3]heptan-2-yl)methanone]",13
18,Cc1ncc(C(=O)N2CCN(C(=O)[C@@H]3CCCN3c3nc(N)n4nc(-c5ccco5)nc4n3)CC2)s1 [Example 104],11
19,"Nc1nc(N2CCC[C@H]2C(=O)N2CCN(Cc3ccccc3)CC2)nc2nc(-c3nccs3)nn12 [Example 193, (S)-(1-(7-amino-2-(thiazol-2-yl)-[1,2,4]triazolo[1,5-a][1,3,5]triazin-5-yl)pyrrolidin-2-yl)(4-benzylpiperazin-1-yl)methanone]",10
20,"Nc1nc(N[C@@H](Cc2ccccc2)C(=O)N2CCCN(Cc3ccccc3)CC2)nc2nc(-c3ccco3)nn12 [Example 20, (S)-2-((7-amino-2-(furan-2-yl)-[1,2,4]triazolo[1,5-a][1,3,5]triazin-5-yl)amino)-1-(4-benzyl-1,4-diazepan-1-yl)-3-phenylpropan-1-one]",20
21,"Cc1ccc(-c2nc3nc(N4CCC[C@H]4C(=O)N4CCN(Cc5ccc(F)cc5F)CC4)nc(N)n3n2)o1 [Example 40, (S)-(1-(7-amino-2-(5-methylfuran-2-yl)-[1,2,4]triazolo[1,5-a][1,3,5]triazin-5-yl)pyrrolidin-2-yl)(4-(2,4-difluorobenzyl)piperazin-1-yl)methanone]",4
22,"Nc1nc(N2CCC[C@H]2C(=O)N2CCN(CC(F)(F)F)CC23CC3)nc2nc(-c3ccco3)nn12 [Example 342, (S)-(1-(7-amino-2-(furan-2-yl)-[1,2,4]triazolo[1,5-a][1,3,5]triazin-5-yl)pyrrolidin-2-yl)(7-(2,2,2-trifluoroethyl)-4,7-diazaspiro[2.5]octan-4-yl)methanone]",8
23,"Nc1nc(N2CCC[C@H]2C(=O)N2CCN(c3ncccc3C(F)(F)F)CC2)nc2nc(-c3ccco3)nn12 [Example 124, (S)-(1-(7-amino-2-(furan-2-yl)-[1,2,4]triazolo[1,5-a][1,3,5]triazin-5-yl)pyrrolidin-2-yl)(4-(3-(trifluoromethyl)pyridin-2-yl)piperazin-1-yl)methanone]",2
24,Cc1cnc(C(=O)N2CCN(C(=O)[C@@H]3CCCN3c3nc(N)n4nc(-c5ccco5)nc4n3)CC2)s1 [Example 103],6
25,"Nc1nc(N2CCC[C@H]2C(=O)N2CC3CCC(C2)N3C(=O)Nc2ccccc2)nc2nc(-c3ccco3)nn12 [Example 179, 3-((7-amino-2-(furan-2-yl)-[1,2,4]triazolo[1,5-a][1,3,5]triazin-5-yl)-L-prolyl)-N-phenyl-3,8-diazabicyclo[3.2.1]octane-8-carboxamide]",5
26,"CN(CC(F)(F)F)C1CCN(C(=O)[C@@H]2CCCN2c2nc(N)n3nc(-c4ccco4)nc3n2)CC1 [Example 337, (S)-(1-(7-amino-2-(furan-2-yl)-[1,2,4]triazolo[1,5-a][1,3,5]triazin-5-yl)pyrrolidin-2-yl)(4-(methyl(2,2,2-trifluoroethyl)amino)piperidin-1-yl)methanone]",9
27,"CCCCN1CCC(C2CCN(C(=O)[C@@H]3CCN3c3cc4nc(-c5ccco5)nn4c(N)n3)CC2)CC1 [Example 383, (S)-(1-(5-amino-2-(furan-2-yl)-[1,2,4]triazolo[1,5-c]pyrimidin-7-yl)azetidin-2-yl)(1′-butyl-[4,4′-bipiperidin]-1-yl)methanone]",2
28,Nc1nc(N2CCC[C@H]2C(=O)N2CCN(C3COC3)CC2)cc2nc(-c3ccco3)nn12 [Example 404],18
29,"Nc1nc(N2CCC[C@H]2C(=O)N2CC3(CCN(CC(F)(F)F)CC3)C2)nc2nc(-c3ccco3)nn12 [Example 363, (S)-(1-(7-amino-2-(furan-2-yl)-[1,2,4]triazolo[1,5-a][1,3,5]triazin-5-yl)pyrrolidin-2-yl)(7-(2,2,2-trifluoroethyl)-2,7-diazaspiro[3-5]nonan-2-yl)methanone]",12
